Data published in US12365696B2, “Small-molecule focal adhesion kinase (FAK) inhibitors” (DANA-FARBER CANCER INSTITUTE, INC., priority 2019, dated 2025).
Read-outs that look alike come from different tables or passages of the source.

Legend:
Assay in all cases: KINOMEscan
Assay type in all cases: binding
[1] = biological target: ABL1(E255K)-phosphorylated (Homo sapiens (Human), UniProt P00519, E255K); details: 10000 nM, read-out: Percent Control
[2] = biological target: ABL1(F317L)-nonphosphorylated (Homo sapiens (Human), UniProt P00519, F317L); details: 10000 nM, read-out: Percent Control
[3] = biological target: ABL1(F317L)-phosphorylated (Homo sapiens (Human), UniProt P00519, F317L); details: 10000 nM, read-out: Percent Control
[4] = biological target: ACVR1B (Homo sapiens (Human), UniProt P36896); details: 10000 nM, read-out: Percent Control
Chain of ACVR1B (P36896 24-505): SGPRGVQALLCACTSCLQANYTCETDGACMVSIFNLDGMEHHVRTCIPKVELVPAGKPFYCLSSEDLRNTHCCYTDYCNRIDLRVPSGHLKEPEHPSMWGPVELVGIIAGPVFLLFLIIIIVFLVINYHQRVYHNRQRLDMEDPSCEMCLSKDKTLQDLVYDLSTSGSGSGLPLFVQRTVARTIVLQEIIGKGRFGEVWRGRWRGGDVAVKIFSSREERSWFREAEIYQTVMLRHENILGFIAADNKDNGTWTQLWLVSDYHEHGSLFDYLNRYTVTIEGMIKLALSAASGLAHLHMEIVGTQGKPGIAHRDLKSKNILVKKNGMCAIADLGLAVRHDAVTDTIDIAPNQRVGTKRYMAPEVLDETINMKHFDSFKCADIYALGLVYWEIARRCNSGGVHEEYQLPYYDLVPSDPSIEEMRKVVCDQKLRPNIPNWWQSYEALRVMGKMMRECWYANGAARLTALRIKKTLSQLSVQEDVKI

[5] = biological target: AURKA (Homo sapiens (Human), UniProt O14965); details: 10000 nM, read-out: Percent Control
[6] = biological target: BRAF (Homo sapiens (Human), UniProt P15056); details: 10000 nM, read-out: Percent Control
[7] = biological target: CDK4 (Homo sapiens (Human), UniProt P11802); details: CDK4, 10000 nM; read-out: Percent Control
[8] = biological target: CDK7 (Homo sapiens (Human), UniProt P50613); details: CDK7, 10000 nM; read-out: Percent Control
Chain of CDK7 (P50613 whole entry): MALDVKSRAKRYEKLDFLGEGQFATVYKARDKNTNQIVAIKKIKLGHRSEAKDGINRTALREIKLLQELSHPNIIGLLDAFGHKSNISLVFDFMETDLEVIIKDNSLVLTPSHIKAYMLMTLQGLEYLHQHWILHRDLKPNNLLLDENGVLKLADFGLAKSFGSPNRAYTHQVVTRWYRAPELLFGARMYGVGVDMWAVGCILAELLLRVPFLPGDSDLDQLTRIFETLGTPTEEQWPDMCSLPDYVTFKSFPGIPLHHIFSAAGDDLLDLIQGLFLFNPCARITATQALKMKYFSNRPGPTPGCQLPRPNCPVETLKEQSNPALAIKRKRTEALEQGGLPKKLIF

[9] = biological target: CDKL5 (Homo sapiens (Human), UniProt O76039); details: CDKL5, 10000 nM; read-out: Percent Control
[10] = biological target: DMPK2 (Homo sapiens (Human), UniProt Q6DT37); details: DMPK2, 10000 nM; read-out: Percent Control
[11] = biological target: DYRK1A (Homo sapiens (Human), UniProt Q13627); details: 10000 nM, read-out: Percent Control
[12] = biological target: DYRK2 (Homo sapiens (Human), UniProt Q92630); details: DYRK2, 10000 nM; read-out: Percent Control
[13] = biological target: EGFR (Homo sapiens (Human), UniProt P00533); details: 10000 nM, read-out: Percent Control
[14] = biological target: EPHA1 (Homo sapiens (Human), UniProt P21709); details: EPHA1, 10000 nM; read-out: Percent Control
Chain of EPHA1 (P21709 26-976): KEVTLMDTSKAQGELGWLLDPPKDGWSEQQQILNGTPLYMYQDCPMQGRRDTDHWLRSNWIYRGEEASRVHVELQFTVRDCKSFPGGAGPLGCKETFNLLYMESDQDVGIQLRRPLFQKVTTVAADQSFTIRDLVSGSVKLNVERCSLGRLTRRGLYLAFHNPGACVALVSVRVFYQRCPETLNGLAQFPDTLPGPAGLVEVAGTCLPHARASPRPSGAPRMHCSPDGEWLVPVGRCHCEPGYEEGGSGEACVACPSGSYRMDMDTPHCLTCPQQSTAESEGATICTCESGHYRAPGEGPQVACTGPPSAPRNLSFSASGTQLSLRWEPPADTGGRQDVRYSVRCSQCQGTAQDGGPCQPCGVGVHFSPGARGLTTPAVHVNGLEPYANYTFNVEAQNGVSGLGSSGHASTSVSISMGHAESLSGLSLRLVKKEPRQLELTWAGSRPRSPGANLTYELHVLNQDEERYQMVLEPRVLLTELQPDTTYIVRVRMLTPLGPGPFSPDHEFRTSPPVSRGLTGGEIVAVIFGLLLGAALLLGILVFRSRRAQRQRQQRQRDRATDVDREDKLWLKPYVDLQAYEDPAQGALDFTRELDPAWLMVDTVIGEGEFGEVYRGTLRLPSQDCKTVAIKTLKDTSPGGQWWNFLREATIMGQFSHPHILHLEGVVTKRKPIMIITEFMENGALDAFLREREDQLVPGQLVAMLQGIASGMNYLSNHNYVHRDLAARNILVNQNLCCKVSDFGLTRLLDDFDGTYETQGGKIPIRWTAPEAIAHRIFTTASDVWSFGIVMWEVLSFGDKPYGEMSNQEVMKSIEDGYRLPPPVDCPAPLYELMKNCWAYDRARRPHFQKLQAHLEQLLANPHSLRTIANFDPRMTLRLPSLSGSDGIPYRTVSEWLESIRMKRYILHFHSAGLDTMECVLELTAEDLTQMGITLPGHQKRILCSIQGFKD

[15] = biological target: EPHA2 (Homo sapiens (Human), UniProt P29317); details: EPHA2, 10000 nM; read-out: Percent Control
Chain of EPHA2 (P29317 24-976): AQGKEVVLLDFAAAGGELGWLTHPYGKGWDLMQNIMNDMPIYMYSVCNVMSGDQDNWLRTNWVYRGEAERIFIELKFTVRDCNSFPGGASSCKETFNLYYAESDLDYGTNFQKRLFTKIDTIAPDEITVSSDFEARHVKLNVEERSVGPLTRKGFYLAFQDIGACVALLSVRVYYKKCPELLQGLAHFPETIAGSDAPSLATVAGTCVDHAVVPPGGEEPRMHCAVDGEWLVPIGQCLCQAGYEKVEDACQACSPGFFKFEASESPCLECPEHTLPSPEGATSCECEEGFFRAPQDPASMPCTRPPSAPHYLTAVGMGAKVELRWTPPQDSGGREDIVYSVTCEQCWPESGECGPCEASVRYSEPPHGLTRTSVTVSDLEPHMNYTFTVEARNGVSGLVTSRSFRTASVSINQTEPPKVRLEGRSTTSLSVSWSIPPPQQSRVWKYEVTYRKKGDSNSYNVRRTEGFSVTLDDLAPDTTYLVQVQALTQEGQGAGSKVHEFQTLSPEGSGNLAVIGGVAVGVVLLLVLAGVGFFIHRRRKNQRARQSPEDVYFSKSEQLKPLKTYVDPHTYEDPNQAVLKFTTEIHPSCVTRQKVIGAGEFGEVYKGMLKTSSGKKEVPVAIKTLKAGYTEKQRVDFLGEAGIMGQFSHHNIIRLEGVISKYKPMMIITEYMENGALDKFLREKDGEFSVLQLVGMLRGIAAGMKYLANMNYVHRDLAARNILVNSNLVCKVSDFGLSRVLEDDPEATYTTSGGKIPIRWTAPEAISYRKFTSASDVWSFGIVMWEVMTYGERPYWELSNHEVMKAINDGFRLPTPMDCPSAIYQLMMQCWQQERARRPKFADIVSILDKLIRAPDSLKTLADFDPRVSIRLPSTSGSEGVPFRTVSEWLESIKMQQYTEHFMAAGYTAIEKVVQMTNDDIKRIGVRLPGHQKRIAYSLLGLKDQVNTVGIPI

[16] = biological target: EPHA3 (Homo sapiens (Human), UniProt P29320); details: EPHA3, 10000 nM; read-out: Percent Control
[17] = biological target: EPHA5 (Homo sapiens (Human), UniProt P54756); details: EPHA5, 10000 nM; read-out: Percent Control
[18] = biological target: FES (Homo sapiens (Human), UniProt P07332); details: 10000 nM, read-out: Percent Control
[19] = biological target: FLT3-autoinhibited (Homo sapiens (Human), UniProt P36888); details: 10000 nM, read-out: Percent Control
[20] = biological target: JAK1(JH2domain-pseudokinase) (Homo sapiens (Human), UniProt P23458); details: 10000 nM, read-out: Percent Control
[21] = biological target: JNK1 (Homo sapiens (Human), UniProt P45983); details: JNK1, 10000 nM; read-out: Percent Control
[22] = biological target: KIT(D816H) (Homo sapiens (Human), UniProt P10721, D816H); details: 10000 nM, read-out: Percent Control
Chain of KIT(D816H) (P10721 26-976 D816H): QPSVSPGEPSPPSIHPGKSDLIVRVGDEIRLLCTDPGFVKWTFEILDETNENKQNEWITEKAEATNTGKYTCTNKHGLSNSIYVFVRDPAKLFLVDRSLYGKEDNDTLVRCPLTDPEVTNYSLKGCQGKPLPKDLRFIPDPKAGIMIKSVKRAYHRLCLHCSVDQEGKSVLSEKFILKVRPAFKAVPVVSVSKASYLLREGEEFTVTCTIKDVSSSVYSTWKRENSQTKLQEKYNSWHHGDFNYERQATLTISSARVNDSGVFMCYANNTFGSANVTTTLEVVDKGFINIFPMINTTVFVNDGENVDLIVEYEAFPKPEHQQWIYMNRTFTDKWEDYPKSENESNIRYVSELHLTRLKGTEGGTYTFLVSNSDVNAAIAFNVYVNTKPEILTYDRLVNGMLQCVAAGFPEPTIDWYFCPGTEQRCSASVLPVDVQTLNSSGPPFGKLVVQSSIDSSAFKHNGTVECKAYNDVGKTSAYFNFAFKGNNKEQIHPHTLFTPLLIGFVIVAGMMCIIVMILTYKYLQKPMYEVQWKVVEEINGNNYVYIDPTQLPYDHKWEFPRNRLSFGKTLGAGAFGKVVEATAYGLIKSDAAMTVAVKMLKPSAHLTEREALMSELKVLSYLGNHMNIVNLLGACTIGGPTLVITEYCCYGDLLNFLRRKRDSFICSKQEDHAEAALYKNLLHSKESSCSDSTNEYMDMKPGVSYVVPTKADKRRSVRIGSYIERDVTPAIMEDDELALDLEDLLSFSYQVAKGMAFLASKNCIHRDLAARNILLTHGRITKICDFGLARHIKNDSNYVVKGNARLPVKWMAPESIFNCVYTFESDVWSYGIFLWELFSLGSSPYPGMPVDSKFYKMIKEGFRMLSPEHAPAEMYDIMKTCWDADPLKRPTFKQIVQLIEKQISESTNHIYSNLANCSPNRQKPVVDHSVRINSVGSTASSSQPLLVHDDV

[23] = biological target: KIT(L576P) (Homo sapiens (Human), UniProt P10721, L576P); details: 10000 nM, read-out: Percent Control
Chain of KIT(L576P) (P10721 26-976 L576P): as the sequence (P10721 26-976 D816H) above, with L551P, H791D counted along it

[24] = biological target: KIT(V5S9D, V654A) (Homo sapiens (Human), UniProt P10721, V559D/V654A); details: 10000 nM, read-out: Percent Control
[25] = biological target: LIMK1 (Homo sapiens (Human), UniProt P53667); details: LIMK1, 10000 nM; read-out: Percent Control
[26] = biological target: LYN (Homo sapiens (Human), UniProt P07948); details: 10000 nM, read-out: Percent Control
[27] = biological target: MAP3K15 (Homo sapiens (Human), UniProt Q6ZN16); details: MAP3K15, 10000 nM; read-out: Percent Control
Chain of MAP3K15 (Q6ZN16 whole entry): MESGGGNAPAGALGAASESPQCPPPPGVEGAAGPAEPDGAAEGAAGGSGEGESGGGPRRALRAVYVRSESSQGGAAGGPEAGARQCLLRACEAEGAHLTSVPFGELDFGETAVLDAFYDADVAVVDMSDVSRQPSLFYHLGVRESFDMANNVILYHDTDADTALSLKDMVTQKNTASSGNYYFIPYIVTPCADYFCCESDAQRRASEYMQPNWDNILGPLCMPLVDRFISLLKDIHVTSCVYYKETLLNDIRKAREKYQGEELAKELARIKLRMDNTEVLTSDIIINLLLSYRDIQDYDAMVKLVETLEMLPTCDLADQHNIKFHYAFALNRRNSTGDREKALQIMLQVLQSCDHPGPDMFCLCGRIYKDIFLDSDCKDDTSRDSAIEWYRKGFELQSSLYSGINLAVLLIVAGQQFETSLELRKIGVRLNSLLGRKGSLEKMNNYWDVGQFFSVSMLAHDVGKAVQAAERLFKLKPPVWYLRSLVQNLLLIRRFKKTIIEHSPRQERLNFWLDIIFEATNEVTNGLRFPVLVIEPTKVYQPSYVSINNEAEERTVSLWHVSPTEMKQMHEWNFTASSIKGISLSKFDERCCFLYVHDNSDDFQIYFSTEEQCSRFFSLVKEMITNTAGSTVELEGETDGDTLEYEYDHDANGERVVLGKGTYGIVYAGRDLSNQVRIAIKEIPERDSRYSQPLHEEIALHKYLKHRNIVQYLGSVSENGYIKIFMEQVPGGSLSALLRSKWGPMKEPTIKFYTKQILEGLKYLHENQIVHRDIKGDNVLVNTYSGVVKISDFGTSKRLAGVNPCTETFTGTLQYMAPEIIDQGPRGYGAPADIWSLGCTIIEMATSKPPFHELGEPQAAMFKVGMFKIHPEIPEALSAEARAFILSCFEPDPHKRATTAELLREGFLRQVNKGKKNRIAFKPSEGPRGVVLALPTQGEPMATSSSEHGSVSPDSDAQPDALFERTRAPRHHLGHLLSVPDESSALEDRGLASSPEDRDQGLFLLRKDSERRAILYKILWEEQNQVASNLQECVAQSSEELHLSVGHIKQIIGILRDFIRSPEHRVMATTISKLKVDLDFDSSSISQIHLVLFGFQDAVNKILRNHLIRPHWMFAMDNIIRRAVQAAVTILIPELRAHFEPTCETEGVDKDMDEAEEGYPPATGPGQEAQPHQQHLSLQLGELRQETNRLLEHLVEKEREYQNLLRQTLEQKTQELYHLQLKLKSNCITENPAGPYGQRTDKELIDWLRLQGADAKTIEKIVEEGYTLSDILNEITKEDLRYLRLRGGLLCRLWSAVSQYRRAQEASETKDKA

[28] = biological target: MEK2 (Homo sapiens (Human), UniProt P36507); details: MEK2, 10000 nM; read-out: Percent Control
[29] = biological target: MLK3 (Homo sapiens (Human), UniProt Q16584); details: MLK3, 10000 nM; read-out: Percent Control
[30] = biological target: PAK1 (Homo sapiens (Human), UniProt Q13153); details: PAK1, 10000 nM; read-out: Percent Control
[31] = biological target: PAK2 (Homo sapiens (Human), UniProt Q13177); details: PAK2, 10000 nM; read-out: Percent Control
[32] = biological target: PCTK2 (Homo sapiens (Human), UniProt Q00537); details: PCTK2, 10000 nM; read-out: Percent Control
[33] = biological target: RIPK2 (Homo sapiens (Human), UniProt O43353); details: RIPK2, 10000 nM; read-out: Percent Control
[34] = biological target: TYRO3 (Homo sapiens (Human), UniProt Q06418); details: TYRO3, 10000 nM; read-out: Percent Control

Row | SMILES | remaining binding at 10 µM [1] [%] | remaining binding at 10 µM [2] [%] | remaining binding at 10 µM [3] [%] | remaining binding at 10 µM [4] [%] | remaining binding at 10 µM [5] [%] | remaining binding at 10 µM [6] [%] | remaining binding at 10 µM [7] [%] | remaining binding at 10 µM [8] [%] | remaining binding at 10 µM [9] [%] | remaining binding at 10 µM [10] [%] | remaining binding at 10 µM [11] [%] | remaining binding at 10 µM [12] [%] | remaining binding at 10 µM [13] [%] | remaining binding at 10 µM [14] [%] | remaining binding at 10 µM [15] [%] | remaining binding at 10 µM [16] [%] | remaining binding at 10 µM [17] [%] | remaining binding at 10 µM [18] [%] | remaining binding at 10 µM [19] [%] | remaining binding at 10 µM [20] [%] | also measured
1 | COc1cc(N2CCC(N3CCN(C)CC3)CC2)ccc1Nc1ncc2c(n1)N(C)c1sc(C)nc1C(=O)N2 [Compound 3, 6-((2-methoxy-4-(4-(4-methylpiperazin-1-yl)piperidin-1-yl)phenyl)amino)-2,4-dimethyl-4,9-dihydro-10H-pyrimido[5,4-b]thiazolo[5,4-e][1,4]diazepin-10-one] | 17 | 3.9 | 10 | 80 | 92 | 86 | 100 | 94 | 97 | 91 | 100 | 100 | 90 | 54 | 91 | 99 | 65 | 81 | 100 | 85 | remaining binding at 10 µM [21]: 100%; remaining binding at 10 µM [22]: 22%; remaining binding at 10 µM [23]: 47%; remaining binding at 10 µM ([24]; KIT(V5S9D, V654A)): 108%; remaining binding at 10 µM [25]: 96%; remaining binding at 10 µM [26]: 69%; remaining binding at 10 µM [27]: 90%; remaining binding at 10 µM [28]: 100%; remaining binding at 10 µM [29]: 73%; remaining binding at 10 µM [30]: 64%; remaining binding at 10 µM [31]: 72%; remaining binding at 10 µM [32]: 76%; remaining binding at 10 µM [33]: 88%; remaining binding at 10 µM [34]: 92%
2 | COc1cc(N2CCC(N3CCN(C)CC3)CC2)ccc1Nc1ncc2c(n1)N(C)c1sc(C)nc1C(=O)N2C [Compound 5, 6-((2-methoxy-4-(4-(4-methylpiperazin-1-yl)piperidin-1-yl)phenyl)amino)-2,4,9-trimethyl-4,9-dihydro-10H-pyrimido[5,4-b]thiazolo[5,4-e][1,4]diazepin-10-one] | 100 | 54 | 39 | 95 | 78 | 95 | 100 | 100 | 100 | 93 | 87 | 100 | 100 | 100 | 91 | 100 | 95 | 97 | 99 | 89 | remaining binding at 10 µM [21]: 100%; remaining binding at 10 µM [22]: 100%; remaining binding at 10 µM [23]: 100%; remaining binding at 10 µM ([24]; KIT(V559D, V654A)): 100%; remaining binding at 10 µM [25]: 95%; remaining binding at 10 µM [26]: 100%; remaining binding at 10 µM [27]: 84%; remaining binding at 10 µM [28]: 99%; remaining binding at 10 µM [29]: 100%; remaining binding at 10 µM [30]: 92%; remaining binding at 10 µM [31]: 89%; remaining binding at 10 µM [32]: 100%; remaining binding at 10 µM [33]: 95%; remaining binding at 10 µM [34]: 88%
